Assay results: PubChem BioAssay AID2060487 (Molecular Pharmacology Branch, DTP, NCI, 2025)

Test system: 997537-175-T-J1-PDC complex spheroid viability
Assay: Anticancer human tumor 997537-175-T-J1-PDC patient-derived colon adenocarcinoma cell line growth inhibition [GQUAD]
Conditions: for IC50: curve of first compound; for viability, T/C: stronger effect = lower value; active = viability on the fitted dose curve at most 10% of control; inactive = the rest
Summary of the method: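 Multi-cell-type spheroids of tumor cells with HUVEC and mesenchymal stem cells, treated with drug combinations. Concentrations descend in half-log steps from near clinical Cmax, or from 10 microM where Cmax is unknown; viability read-out.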

[1] = second compound 0.0316 µM, first compound 0.0316 µM
[2] = second compound 0.0316 µM, first compound 0.1 µM
[3] = second compound 0.0316 µM, first compound 0.316 µM
[4] = second compound 0.0316 µM, first compound 1 µM
[5] = second compound 0.0316 µM, first compound 3.16 µM
[6] = second compound 0.0316 µM, first compound 10 µM
[7] = second compound 0.1 µM, first compound 0.0316 µM
[8] = second compound 0.1 µM, first compound 0.1 µM
[9] = second compound 0.1 µM, first compound 0.316 µM
[10] = second compound 0.1 µM, first compound 1 µM
[11] = second compound 0.1 µM, first compound 3.16 µM
[12] = second compound 0.1 µM, first compound 10 µM
[13] = second compound 0.316 µM, first compound 0.0316 µM
[14] = second compound 0.316 µM, first compound 0.1 µM
[15] = second compound 0.316 µM, first compound 0.316 µM
[16] = second compound 0.316 µM, first compound 1 µM
[17] = second compound 0.316 µM, first compound 3.16 µM
[18] = second compound 0.316 µM, first compound 10 µM
[19] = second compound 1 µM, first compound 0.0316 µM
[20] = second compound 1 µM, first compound 0.1 µM
[21] = second compound 1 µM, first compound 0.316 µM
[22] = second compound 1 µM, first compound 1 µM
[23] = second compound 1 µM, first compound 3.16 µM
[24] = second compound 1 µM, first compound 10 µM
[25] = second compound 3.16 µM, first compound 0.0316 µM
[26] = second compound 3.16 µM, first compound 0.1 µM
[27] = second compound 3.16 µM, first compound 0.316 µM
[28] = second compound 3.16 µM, first compound 1 µM
[29] = second compound 3.16 µM, first compound 3.16 µM
[30] = second compound 3.16 µM, first compound 10 µM
[31] = second compound 10 µM, first compound 0.0316 µM
[32] = second compound 10 µM, first compound 0.1 µM
[33] = second compound 10 µM, first compound 0.316 µM
[34] = second compound 10 µM, first compound 1 µM
[35] = second compound 10 µM, first compound 3.16 µM
[36] = second compound 10 µM, first compound 10 µM
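Also: spheroids exposed to the agents for 7 days.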
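For viability, T/C in this document: 100% = DMSO vehicle control viability.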

CCCS(=O)(=O)Nc1ccc(F)c(C(=O)c2c[nH]c3ncc(-c4ccc(Cl)cc4)cc23)c1F + CN(C)c1ccc(Nc2c3ccc(NC(=O)CCN4CCCC4)cc3nc3cc(NC(=O)CCN4CCCC4)ccc23)cc1
2180 nM: IC50 (second compound 0.0316 µM)
3140 nM: IC50 (second compound 0.1 µM)
4100 nM: IC50 (second compound 0.316 µM)
7030 nM: IC50 (second compound 3.16 µM)
4720 nM: IC50 (second compound 1 µM)
5840 nM: IC50 (second compound 10 µM)
inactive: viability, T/C [1] 93.9% | viability, T/C [2] 75.3% | viability, T/C [3] 60.8% | viability, T/C [4] 78.6% | viability, T/C [5] 38.4% | viability, T/C [6] 24.5% | viability, T/C [7] 105% | viability, T/C [8] 73.1% | viability, T/C [9] 75.4% | viability, T/C [10] 70.6% | viability, T/C [11] 52.1% | viability, T/C [12] 32.7% | viability, T/C [13] 71.3% | viability, T/C [14] 72.9% | viability, T/C [15] 81.3% | viability, T/C [16] 62.9% | viability, T/C [17] 59.4% | viability, T/C [18] 23.9% | viability, T/C [19] 67% | viability, T/C [20] 55% | viability, T/C [21] 81.7% | viability, T/C [22] 43.3% | viability, T/C [23] 65.4% | viability, T/C [24] 26.9% | viability, T/C [25] 70.3% | viability, T/C [26] 63.5% | viability, T/C [27] 85.1% | viability, T/C [28] 39.9% | viability, T/C [29] 78.9% | viability, T/C [30] 42.3% | viability, T/C [31] 71.3% | viability, T/C [32] 62.6% | viability, T/C [33] 63.5% | viability, T/C [34] 56% | viability, T/C [35] 74.9% | viability, T/C [36] 36.4%

CC1COCCN1c1cc(C2(O)CC3CCC(C2)O3)c2cnn(-c3ccn[nH]3)c2n1 (centres undefined) + Cc1[nH]c2ccc(F)cc2c1-c1nc2c3cccnc3c3ncccc3c2[nH]1
< 31.6 nM: IC50 (second compound 3.16 µM)
355 nM: IC50 (second compound 0.1 µM)
305 nM: IC50 (second compound 0.316 µM)
inactive: viability, T/C [1] 74.3% | viability, T/C [2] 56.8% | viability, T/C [3] 62.4% | viability, T/C [4] 22.3% | viability, T/C [5] 40.2% | viability, T/C [6] 56% | viability, T/C [7] 75.3% | viability, T/C [8] 59.5% | viability, T/C [9] 57.9% | viability, T/C [10] 32.7% | viability, T/C [11] 45.4% | viability, T/C [12] 52.7% | viability, T/C [13] 78.7% | viability, T/C [14] 61.9% | viability, T/C [15] 45.5% | viability, T/C [16] 38.6% | viability, T/C [17] 54% | viability, T/C [18] 60.4% | viability, T/C [19] 54.7% | viability, T/C [20] 57.6% | viability, T/C [21] 44.9% | viability, T/C [22] 40.8% | viability, T/C [23] 38.7% | viability, T/C [24] 61.4% | viability, T/C [25] 55.1% | viability, T/C [26] 34.3% | viability, T/C [27] 44% | viability, T/C [28] 29.2% | viability, T/C [29] 44.5% | viability, T/C [30] 60.4% | viability, T/C [31] 61.2% | viability, T/C [32] 44.8% | viability, T/C [33] 42.5% | viability, T/C [34] 43.6% | viability, T/C [35] 31.9% | viability, T/C [36] 41.3%
303 nM: IC50 (second compound 0.0316 µM)
74.6 nM: IC50 (second compound 10 µM)
155 nM: IC50 (second compound 1 µM)
